Literature values as cited in patent US20160220518A1 (iCeutica, Inc., priority 2009, published 2016).

Settings: in vivo

excreted in the urine as 6-0-desmethyl naproxen: < 1%
excreted in the urine as naproxen: < 1%
fraction of any dose excreted in the urine: Approximately 95%
fraction of the administered dose excreted in the feces: ≤ 3%
Compound: COc1ccc2cc([C@H](C)C(=O)O)ccc2c1 [naproxen]
